{
  "source": "patent US20250073249A1",
  "about": "“STEROID COMPOUND, AND PREPARATION METHOD THEREFOR AND USE THEREOF” (SHANGHAI INSTITUTE OF MATERIA MEDICA, CHINESE ACADEMY OF …, priority 2022, published 2025)",
  "format_in_all_cases": "cell-based",
  "key": {"[1]": {"target": "T1, AR (Homo sapiens, UniProt P10275, T878A)", "T1 construct": "endogenous in cells; host or cells: LNCaP", "T1 sequence (P10275 1-920 T878A)": "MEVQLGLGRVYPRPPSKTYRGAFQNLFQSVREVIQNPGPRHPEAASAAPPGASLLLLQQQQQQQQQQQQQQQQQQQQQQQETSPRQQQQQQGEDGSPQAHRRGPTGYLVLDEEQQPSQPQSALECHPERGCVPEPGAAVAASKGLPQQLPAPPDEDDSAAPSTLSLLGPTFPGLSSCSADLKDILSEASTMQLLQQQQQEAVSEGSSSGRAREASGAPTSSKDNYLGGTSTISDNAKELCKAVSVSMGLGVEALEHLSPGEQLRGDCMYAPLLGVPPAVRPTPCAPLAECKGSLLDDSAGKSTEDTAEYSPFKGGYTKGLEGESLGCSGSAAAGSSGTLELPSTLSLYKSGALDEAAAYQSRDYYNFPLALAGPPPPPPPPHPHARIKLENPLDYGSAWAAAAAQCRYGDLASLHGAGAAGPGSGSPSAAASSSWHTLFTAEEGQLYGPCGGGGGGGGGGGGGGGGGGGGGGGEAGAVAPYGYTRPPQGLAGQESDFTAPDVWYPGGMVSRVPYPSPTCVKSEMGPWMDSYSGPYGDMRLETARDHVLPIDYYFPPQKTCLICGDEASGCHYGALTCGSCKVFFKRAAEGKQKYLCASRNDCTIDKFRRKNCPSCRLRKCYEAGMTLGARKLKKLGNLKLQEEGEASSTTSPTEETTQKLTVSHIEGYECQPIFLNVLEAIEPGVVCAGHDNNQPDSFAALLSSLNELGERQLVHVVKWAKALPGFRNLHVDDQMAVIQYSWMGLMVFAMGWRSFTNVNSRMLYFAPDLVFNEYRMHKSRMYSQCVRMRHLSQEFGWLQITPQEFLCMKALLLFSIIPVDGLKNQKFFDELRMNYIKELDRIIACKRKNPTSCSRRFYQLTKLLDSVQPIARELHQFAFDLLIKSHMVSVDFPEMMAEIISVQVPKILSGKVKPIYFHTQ", "assay": "In vitro AR degradation activity test in LNCaP cells (ELISA, OD450)", "settings": "LNCaP cells, 24 hours", "experimental": "The cells were then digested with trypsin and counted using an automated cell counter. The cell suspension was diluted to the desired density in growth medium. The cell suspension was then seeded into 96-well plates at 100 μL per well, and the plates were incubated at 37° C. with 5% CO2 for 24 hours. The compounds were then diluted 200-fold to the final concentration with DMSO or 3-fold to the final concentration with culture medium. 50 μL of compound solution was transferred to the 96-well plate and incubated at 37° C. for 24 hours. After 24 hours of incubation, the cell plate was washed 3 times with DPBS, 100 μL of 1× lysis buffer was added to each well, and placed on ice for 30 minutes. The supernatant was collected. The protein in the cell lysate samples was quantified and then diluted to the required concentration. 100 μL of cell lysate sample was added to the appropriate wells, sealed with tape and pressed firmly on top of the wells, and the plate was incubated at 37° C. for 2 hours. The plate contents were then discarded, and washed 4 times with 1× wash buffer, 200 μL per well each time. 100 μL of reconstituted detection antibody was then added, the plate was sealed with tape and incubated at 37° C. for 1 hour. The aspiration/wash step was then repeated, 100 μL of reconstituted HRP-Linked secondary antibody was added to each well, the plate was sealed with tape and incubated at 37° C. for 30 minutes. The aspiration/wash step was then repeated, 100 μL of substrate solution was added to each well and incubated at 37° C. for 10 minutes, and finally 100 μL of stop solution was added to each well. The plate was gently tapped to ensure thorough mixing, and the OD450 nm was recorded.\nDegradation rate (%)=(OD450_max−OD450_sample)/(OD450_max−OD450_min)×100,plotted using GraphPad Prism 5 software, and IC50 is calculated using SPSS software."}, "[2]": {"tested_on": "TMPRSS2", "assay": "TMPRSS2 mRNA expression in A549 cells (qPCR)"}, "[3]": {"tested_on": "ACE2", "assay": "ACE2 mRNA expression in A549 cells (qPCR)"}, "[4]": {"settings": "10 μM, 1 nM DHT, 48 h, Blank = 1"}},
  "data": [
    {"smiles": "C[C@]12CC[C@H](NC(=O)c3ccnnc3)CC1=CCC1C2CC[C@]2(C)C(n3cnc([N+](=O)[O-])c3)=CCC12", "note": "(some centres unmarked) [Compound 21]", "values": [
      {"measurement": "DC50", "setting": "[1]", "value": 3.31, "unit": "µM"},
      {"measurement": "Expression of TMPRSS2 protein, in words", "setting": "[2]", "value": "significantly downregulate"},
      {"measurement": "TMPRSS2 mRNA level", "setting": "[2]; [4]", "value": 0.196},
      {"measurement": "Expression of ACE2 protein, in words", "setting": "[3]", "value": "significantly downregulate"},
      {"measurement": "ACE2 mRNA level", "setting": "[3]; [4]", "value": 0.234}
    ]}
  ]
}
